Experimental data: patent US20160222014A1, “COMPOUNDS FOR REGULATING FAK AND/OR SRC PATHWAYS” (ASANA BIOSCIENCES, LLC, priority 2013, published 2016)

Biological target: T1, recombinant human FAK1 (Homo sapiens, UniProt Q05397)
T1 construct: fused on or other part: N-terminal 6xHis tag
Assay: FAK1 HTRF assay
Format: biochemical
Description: Active FAK1 was prepared for use in the Homogeneous Time-Resolved Fluorescence (HTRF) assay. Briefly, N-terminal 6 His tagged recombinant human FAK1, from residue 692-end (GenBank accession no. L13616) was expressed by Bacculovirus in sf9 cells. […] A 1.6 mg/mL (45 μM) stock was used in the HTRF assay at a final concentration of 10 nM.
Gastrin precursor (tyr87) biotinylated peptide which contains the residues surrounding tyrosine 87 (EEAY*GWM) of gastrin precursor was obtained (Cell Signaling Tech, Item no. 1310, Lot 7). The peptide was provided at a stock concentration of 6 μM, and used a final concentration of 0.5 μM in the HTRF assay.
10 mM stock in 100 μL Enzyme assay buffer pH7.4 was prepared freshly and used at a final concentration of 10 μM in the assay.
Powders were dissolved in 100% DMSO to a final stock concentration of 10 mM. The volume needed (in μL) to add for 10 mM=mg powder is 10^5/MW of compound. The final compound concentration in the assay plate started at 10 μM.
Pfizer FAK inhibitor PF-562271 (N-methyl-N-(3-(((2-((2-oxoindolin-5-yl)amino)-5-(trifluoromethyl)pyrimidin-4-yl)amino)methyl)pyridin-2-yl)methanesulfonamide) was prepared as per the reported procedure from US Patent Publication No. 2005/256145A1.
Streptavidin-Allophycocyanin was obtained (Prozyme, Cat. No. PJ25S. SA-APC was provided at a stock concentration of 2.06 mg/mL, where APC concentration was 11.6 μM and the streptavidin concentration was 15.5 μM. SA-APC was used at a final concentration of 12 nM in the assay (based on streptavidin concentration).
This reagent was obtained from Perkin ElmerAD0068. Europium-W1024-PT-66 Anti Phospho Tyrosine Ab is a monoclonal IgG1 that recognizes phospho tyrosine peptide. 100 μg/mL stock was used at a final concentration of 0.1 nM in the assay.
• 1. The compound dilutions were made by TECAN liquid handler as per the scheme in FIG. 1. • 2. 16 μL of diluted compound was added to each well of the assay plate using TECAN liquid handler. • 3. 20 μL of substrate mix (biotinylated gastrin precursor) was added into each well of the assay plate manually. • 4. 10 μL of enzyme mix (FAK1) was added to each well except mins. • 5. The plate was incubated at rt for 45 min with shaking. • 6. The HTRF mix was prepared and 75 μL was added to the HTRF plate. • 7. After the incubation was over, 10 μL of the mixture was transferred to the HTRF assay plate and incubated for 45 min at rt with shaking. • 8. The readings were taken in Pherastar in HTRF mode (ext 337 nm, em 665 & 620 nm) • 9. The results were analyzed using Graphpad Prism® software after calculation the z factor signal window and % inhibition. • 10. The IC50 was calculated.

T1 sequence (Q05397 422-680 limits assumed): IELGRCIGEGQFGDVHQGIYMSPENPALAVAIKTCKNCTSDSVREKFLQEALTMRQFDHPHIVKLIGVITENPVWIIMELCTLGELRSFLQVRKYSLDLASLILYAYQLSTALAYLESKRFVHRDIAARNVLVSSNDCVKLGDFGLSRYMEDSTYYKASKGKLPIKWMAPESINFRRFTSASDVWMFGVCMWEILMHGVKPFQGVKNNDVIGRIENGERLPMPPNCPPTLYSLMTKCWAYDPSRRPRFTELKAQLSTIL

| SMILES | IC50 |
| --- | --- |
| CN1CCC(Oc2ccc(Nc3ncc4ccn(Cc5ccccc5N(C)S(C)(=O)=O)c4n3)cc2)CC1 [Example 531] | < 0.02 µM |
| CN(c1ccccc1Cn1ccc2cnc(Nc3ccc(N4CCC(CO)CC4)cc3)nc21)S(C)(=O)=O [Example 566] | < 0.02 µM |
| CN(C)C1CCN(c2ccc(Nc3ncc4ccn(Cc5ccccc5N(C)S(C)(=O)=O)c4n3)cc2)C1 (stereo not shown) [Example 571] | < 0.02 µM |
| CN(c1ccccc1Cn1ccc2cnc(Nc3ccc(OCCN4CCNCC4)cc3)nc21)S(C)(=O)=O [Example 572] | < 0.02 µM |
| CN(C)C1CN(c2ccc(Nc3ncc4ccn(Cc5ccccc5N(C)S(C)(=O)=O)c4n3)cc2)C1 [Example 588] | < 0.02 µM |
| CN(C)C1CCN(c2ccc(Nc3ncc4ccn(Cc5ccccc5N(C)S(C)(=O)=O)c4n3)cc2F)C1 (stereo not shown) [Example 590] | < 0.02 µM |
| CN(c1ccccc1Cn1ccc2cnc(Nc3ccc(N4CCC(C)(O)CC4)cc3)nc21)S(C)(=O)=O [Example 638] | < 0.02 µM |
| COc1ccc(N(C)S(C)(=O)=O)c(Cn2ccc3cnc(Nc4ccc(N5CCNCC5)cc4)nc32)c1 [Example 661] | < 0.02 µM |
| C[C@H]1CN(C(=O)c2ccc(Nc3ncc4ccn(Cc5cccnc5N(C)S(C)(=O)=O)c4n3)cc2)CCN1 [Example 682] | > 1 µM |
| COc1ccc(N(C)S(C)(=O)=O)c(Cn2ccc3cnc(Nc4ccc(N5CCNCC5)c(F)c4)nc32)c1 [Example 700] | < 0.02 µM |
| CN1CCC(NC(=O)c2ccc(Nc3ncc4c(n3)N(S(=O)(=O)c3cccc5cccnc35)CC4(C)C)cc2)CC1 [Example 702] | < 0.02 µM |
| COc1ccc(N(C)S(C)(=O)=O)c(Cn2ccc3cnc(Nc4ccc(N5CCC(N(C)C)CC5)c(OC)c4)nc32)c1 [Example 703] | < 0.02 µM |
| CCC1CN(c2ccc(Nc3ncc4ccn(Cc5cc(OC)ccc5N(C)S(C)(=O)=O)c4n3)cc2)CCN1 (stereo not shown) [Example 704] | < 0.02 µM |
| COc1ccc(N(C)S(C)(=O)=O)c(Cn2ccc3cnc(Nc4ccc(N5CCC(N(C)C)CC5)c(C)c4)nc32)c1 [Example 705] | < 0.02 µM |
| CNC1CCN(c2ccc(Nc3ncc4ccn(Cc5cc(OC)ccc5N(C)S(C)(=O)=O)c4n3)cc2)CC1 [Example 709] | < 0.02 µM |
| C[C@@H]1CN(c2ccc(Nc3ncc4ccn(Cc5ccccc5N(C)S(C)(=O)=O)c4n3)cc2C2CC2)CCN1 [Example 710] | < 0.02 µM |
| CN(c1ccc(C#N)cc1Cn1ccc2cnc(Nc3ccc(N4CCNCC4)cc3)nc21)S(C)(=O)=O [Example 715] | < 0.02 µM |
| CN(c1ccc(OC(F)F)cc1Cn1ccc2cnc(Nc3ccc(N4CCNCC4)cc3)nc21)S(C)(=O)=O [Example 717] | < 0.02 µM |
| Cc1ccc(N(C)S(C)(=O)=O)c(Cn2ccc3cnc(Nc4ccc(N5CCNCC5)cc4)nc32)c1 [Example 759, N-methyl-N-(4-methyl-2-((2-((4-(piperazin-1-yl)phenyl)amino)-7H-pyrrolo[2,3-d]pyrimidin-7-yl)methyl)phenyl)methanesulfonamide] | < 0.02 µM |
| Cc1ccc(N(C)S(C)(=O)=O)c(Cn2ccc3cnc(Nc4ccc(N5CCC(N(C)C)CC5)cc4)nc32)c1 [Example 761] | < 0.02 µM |
| Cc1ccc(N(C)S(C)(=O)=O)c(Cn2ccc3cnc(Nc4ccc(N5CCN[C@@H](C)C5)cc4)nc32)c1 [Example 766] | < 0.02 µM |
| Cc1cn(S(=O)(=O)c2cccc3cccnc23)c2nc(Nc3ccc(N4CCNCC4)cc3)ncc12 [Example 769] | < 0.02 µM |
| CN(C)C1CCN(c2ccc(Nc3ncc4ccn(Cc5cc(F)ccc5N(C)S(C)(=O)=O)c4n3)cc2)CC1 [Example 778] | < 0.02 µM |
| Cc1cc(Nc2ncc3ccn(Cc4cc(F)ccc4N(C)S(C)(=O)=O)c3n2)ccc1C1CCNCC1 [Example 782] | < 0.02 µM |
| Cc1ccc(N(C)S(C)(=O)=O)c(Cn2ccc3cnc(Nc4ccc(C5CCNCC5)cc4)nc32)c1 [Example 789] | < 0.02 µM |

| SMILES | IC50 |
| --- | --- |
| CN(c1ccc(F)cc1Cn1ccc2cnc(Nc3ccc4c(c3)CC(=O)N4)nc21)S(C)(=O)=O [Example 792] | < 0.02 µM |
| C[C@@H]1CN(c2ccc(Nc3ncc4ccn(Cc5cc(F)ccc5N(C)S(C)(=O)=O)c4n3)cc2)CCN1 [Example 793] | < 0.02 µM |
| Cc1cc(Nc2ncc3ccn(Cc4cc(F)ccc4N(C)S(C)(=O)=O)c3n2)ccc1N1CCC(N(C)C)CC1 [Example 794] | < 0.02 µM |
| CN(C)C1CCN(c2ccc(Nc3ncc4ccn(Cc5cc(Cl)ccc5N(C)S(C)(=O)=O)c4n3)cc2)CC1 [Example 796] | < 0.02 µM |
| CN(c1ccc(F)cc1Cn1ccc2cnc(Nc3ccc(N4CCC(N)CC4)cc3)nc21)S(C)(=O)=O [Example 799] | < 0.02 µM |
| CN(c1ccc(F)cc1Cn1ccc2cnc(Nc3ccc(N4CCCC(N)C4)cc3)nc21)S(C)(=O)=O (stereo not shown) [Example 800] | < 0.02 µM |
| COc1cc(Nc2ncc3ccn(Cc4cc(F)ccc4N(C)S(C)(=O)=O)c3n2)ccc1N1CCNCC1 [Example 801] | < 0.02 µM |
| CN(c1ccc(F)cc1Cn1ccc2cnc(Nc3ccc(N4CCNCC4)c(F)c3)nc21)S(C)(=O)=O [Example 802] | < 0.02 µM |
| CN(c1ccc(F)cc1Cn1ccc2cnc(Nc3ccc(N4CCNCC4)cc3)nc21)S(C)(=O)=O [Example 805] | < 0.02 µM |
| CN(C)C1CCC(c2ccc(Nc3ncc4ccn(Cc5cc(F)ccc5N(C)S(C)(=O)=O)c4n3)cc2)CC1 (stereo not shown) [Example 806] | < 0.02 µM |
| Cc1ccc(N(C)S(C)(=O)=O)c(Cn2ccc3cnc(Nc4ccc(C5CCNCC5)c(C)c4)nc32)c1 [Example 807] | < 0.02 µM |
| Cc1ccc(N(C)S(C)(=O)=O)c(Cn2ccc3cnc(Nc4ccc(N5CCN[C@@H](C)C5)c(F)c4)nc32)c1 [Example 809] | < 0.02 µM |
| C[C@H]1CN(c2ccc(Nc3ncc4ccn(Cc5cc(C(F)(F)F)ccc5N(C)S(C)(=O)=O)c4n3)cc2)CCN1 [Example 810] | < 0.02 µM |
| CN(c1ccc(C(F)(F)F)cc1Cn1ccc2cnc(Nc3ccc(N4CCNCC4)cc3)nc21)S(C)(=O)=O [Example 892] | < 0.02 µM |
| C[C@H]1CN(c2ccc(Nc3ncc4ccn(Cc5cc(Cl)ccc5N(C)S(C)(=O)=O)c4n3)cc2)CCN1 [Example 899] | < 0.02 µM |
| CN(c1ccc(F)cc1Cn1ccc2cnc(Nc3ccc(N4CCN(CCO)CC4)cc3)nc21)S(C)(=O)=O [Example 920] | < 0.02 µM |
| Cc1ccc(N(C)S(C)(=O)=O)c(Cn2ccc3cnc(Nc4ccc(N5CCNCC5)c(F)c4)nc32)c1 [Example 941] | < 0.02 µM |
| COc1cc(Nc2ncc3ccn(Cc4cc(C)ccc4N(C)S(C)(=O)=O)c3n2)ccc1N1CCNCC1 [Example 942] | < 0.02 µM |
| Cc1ccc(N(C)S(C)(=O)=O)c(Cn2ccc3cnc(Nc4ccc(N5CCC(N)CC5)cc4)nc32)c1 [Example 977] | < 0.02 µM |
| Cc1ccc(N(C)S(C)(=O)=O)c(Cn2ccc3cnc(Nc4ccc(N5CCCC(N)C5)cc4)nc32)c1 (stereo not shown) [Example 978] | < 0.02 µM |
| Cc1ccc(N(C)S(C)(=O)=O)c(Cn2ccc3cnc(Nc4ccc(C5CCC(N(C)C)CC5)cc4)nc32)c1 (stereo not shown) [Example 980] | < 0.02 µM |
| Cc1cnc(N(C)S(C)(=O)=O)c(Cn2ccc3cnc(Nc4ccc(N5CCC(N(C)C)CC5)c(C)c4)nc32)c1 [Example 981] | < 0.02 µM |
| CNC(=O)c1ccc(Nc2ncc3ccn(Cc4cc(F)ccc4N(C)S(C)(=O)=O)c3n2)cc1 [Example 983] | < 0.02 µM |
| CNC(=O)c1ccc(Nc2ncc3ccn(Cc4cc(C)ccc4N(C)S(C)(=O)=O)c3n2)cc1 [Example 986] | < 0.02 µM |
